Measured values published in patent US9096615B2, “Bridged bicyclic amino thiazine dioxide compounds as inhibitors of beta-secretase and methods of use thereof” (AMGEN INC., priority 2013, dated 2015).
pIC50: −log10 of the molar value. Read-outs that look alike come from different tables or passages of the source.

What was measured:
BACE1 = BACE1 (Homo sapiens, UniProt P56817); assay: In vitro enzymatic BACE FRET assay; format: biochemical
Summary of the method: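 BACE (0.2 nM) pre-incubated 1 h with serially diluted inhibitor in 0.05 M acetate pH 4.2, 10% DMSO, 100 uM genapol; 50 nM FRET peptide substrate added, 1 h incubation. Stopped with Tris to neutral pH; fluorescence read (ex 488, […]).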

[1] = test system: Aβ40 in conditioned medium of cells stably expressing Amyloid Precursor Protein (APP); assay: In vitro BACE cell-based assay (HEK cell assay, Aβ40 sandwich ELISA); conditions: Homo sapiens, HEK293
Summary of the method: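 APP-stable cells were cultured 24 h at 37 °C, then given compound as 10-point dose-response (top 100 μM or 10 μM; 0.1% DMSO final) for 24 h. Aβ40 in conditioned medium was measured by sandwich ELISA (pAb40 capture, biotinylated 6E10 detection, Eu time-resolved fluorescence). IC50 from percent inhibition versus concentration.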

Cathepsin D (Cat D) = molecular target: T1, Cathepsin D (Cat D) (Homo sapiens, UniProt P07339); assay: In vitro enzymatic Cathepsin D (Cat D) FRET assay; format: biochemical
T1 construct: made in house; host or cells: CHO cells
Summary of the method: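 Recombinant human Cat D expressed in CHO cells, 9 nM, pre-incubated 1 h with inhibitor in 0.05 M citrate pH 3.5, 10% DMSO, 5 mM CHAPS. Reaction started with 20 nM FRET peptide substrate, run 1 h, stopped with Tris to neutral pH; fluorescence read at ex 500/em 580 nm.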

[2] = read-out: BACE1 FRET assay IC50
[3] = Aβ40, 24 h incubation, read-out: HEK cell assay IC50
[4] = average IC50, read-out: BACE1 Enzyme assay IC50
[5] = average IC50, read-out: BACE1 cell assay IC50
[6] = average IC50, first procedure, read-out: CatD IC50

Chain of BACE1 (P56817 46-501, species assumed): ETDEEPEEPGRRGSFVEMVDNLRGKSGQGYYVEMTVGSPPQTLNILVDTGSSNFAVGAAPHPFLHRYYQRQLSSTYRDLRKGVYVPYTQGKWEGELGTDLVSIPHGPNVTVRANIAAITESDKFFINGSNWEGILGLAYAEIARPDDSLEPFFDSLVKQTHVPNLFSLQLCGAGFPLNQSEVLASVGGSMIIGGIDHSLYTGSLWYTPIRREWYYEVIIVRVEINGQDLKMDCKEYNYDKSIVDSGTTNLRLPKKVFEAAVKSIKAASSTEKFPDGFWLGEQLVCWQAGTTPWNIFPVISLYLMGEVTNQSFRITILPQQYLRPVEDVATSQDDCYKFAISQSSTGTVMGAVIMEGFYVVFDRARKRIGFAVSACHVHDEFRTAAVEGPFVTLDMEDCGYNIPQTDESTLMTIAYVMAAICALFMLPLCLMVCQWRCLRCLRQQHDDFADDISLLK
T1 sequence (P07339 65-412, species assumed): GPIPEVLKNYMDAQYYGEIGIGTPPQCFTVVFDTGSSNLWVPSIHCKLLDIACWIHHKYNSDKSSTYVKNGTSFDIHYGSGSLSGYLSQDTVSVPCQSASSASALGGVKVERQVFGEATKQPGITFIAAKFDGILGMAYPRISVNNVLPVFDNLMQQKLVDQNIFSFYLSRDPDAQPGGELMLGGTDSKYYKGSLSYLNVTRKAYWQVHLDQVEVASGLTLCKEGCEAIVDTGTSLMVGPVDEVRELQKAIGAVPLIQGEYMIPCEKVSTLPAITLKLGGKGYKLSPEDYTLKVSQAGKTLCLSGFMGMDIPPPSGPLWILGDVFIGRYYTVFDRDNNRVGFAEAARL

SMILES | pIC50 (BACE1; [2]) | pIC50 [1, 3] | pIC50 (Cathepsin D (Cat D); read-out: CatD IC50) | pIC50 (BACE1; [4]) | pIC50 [1, 5] | pIC50 (Cathepsin D (Cat D); [6]) | pIC50 (Cathepsin D (Cat D); read-out: Cat D IC50 value)
COc1cnc2c(Nc3ccc(F)c([C@@]4(C)N=C(N)[C@]5(C)CCC[C@H]4S5(=O)=O)c3)nccc2n1 [Example 2, (1S,4R,5R)-2-Amino-4-(2-fluoro-5-((2-methoxypyrido[3,4-b]pyrazin-5-yl)amino)phenyl)-1,4-dimethyl-9-thia-3-azabicyclo[3.3.1]non-2-ene 9,9-dioxide] | 6.89 | 7.26 | 3.78 |  |  |  | 
COc1cnc2c(Nc3ccc(F)c([C@@]4(C)N=C(N)[C@]5(C)CC[C@H]4S5(=O)=O)c3)ncnc2c1 [Example 133, N-(3-((1R,2R,5S)-4-amino-2,5-dimethyl-8,8-dioxido-8-thia-3-azabicyclo[3.2.1]oct-3-en-2-yl)-4-fluorophenyl)-7-methoxypyrido[3,2-d]pyrimidin-4-amine] |  |  |  | 7.02 | 7.59 | 2.93 | 
C[C@]1(c2cc(Nc3ncc(F)c4cc(OCC5CC5)cnc34)ccc2F)N=C(N)[C@@]2(C)CC[C@@H]1S2(=O)=O [Example 137, N-(3-((1S,2R,5R)-4-amino-2,5-dimethyl-8,8-dioxido-8-thia-3-azabicyclo[3.2.1]oct-3-en-2-yl)-4-fluorophenyl)-3-(cyclopropylmethoxy)-5-fluoro-1,7-naphthyridin-8-amine] |  |  |  | 8.52 | 7.18 | < 3.40 | 
C[C@]12CC[C@H]([C@@](C)(c3cc(Nc4nccc5nc(OCC6CC6)cnc45)ccc3F)N=C1N)S2(=O)=O [Example 67, N-(3-((1R,2R,5S)-4-amino-2,5-dimethyl-8,8-dioxido-8-thia-3-azabicyclo[3.2.1]oct-3-en-2-yl)-4-fluorophenyl)-2-(cyclopropylmethoxy)pyrido[3,4-b]pyrazin-5-amine] |  |  |  | 6.81 | 6.28 | 4.00 | 
CC(C)COc1cnc2c(Nc3ccc(F)c([C@@]4(C)N=C(N)[C@@]5(C)CC[C@@H]4S5(=O)=O)c3)nccc2n1 [Example 143, N-(3-((1S,2R,5R)-4-amino-2,5-dimethyl-8,8-dioxido-8-thia-3-azabicyclo[3.2.1]oct-3-en-2-yl)-4-fluorophenyl)-2-(2-methylpropoxy)pyrido[3,4-b]pyrazin-5-amine] |  |  |  | 8.05 | 6.79 | 3.82 | 
CCCOc1cnc2c(Nc3ccc(F)c([C@@]4(C)N=C(N)[C@@]5(C)CC[C@@H]4S5(=O)=O)c3)nccc2n1 [Example 144, N-(3-((1S,2R,5R)-4-amino-2,5-dimethyl-8,8-dioxido-8-thia-3-azabicyclo[3.2.1]oct-3-en-2-yl)-4-fluorophenyl)-2-propoxypyrido[3,4-b]pyrazin-5-amine] |  |  |  | 8.40 | 7.15 | < 3.40 | 
C[C@]1(c2cc(NC(=O)c3ccc(C#N)cn3)ccc2F)N=C(N)[C@@]2(CF)CC[C@@H]1S2(=O)=O [Example 111, N-(3-((1S,2R,5R)-4-amino-5-(fluoromethyl)-2-methyl-8,8-dioxido-8-thia-3-azabicyclo[3.2.1]oct-3-en-2-yl)-4-fluorophenyl)-5-cyano-2-pyridinecarboxamide] |  |  |  | 8.70 | 8.40 | 3.02 | 
COCc1ccc(C(=O)Nc2ccc(F)c([C@@]3(C)N=C(N)[C@@]4(C)CC[C@@H]3S4(=O)=O)c2)nc1 [Example 90, N-(3-((1S,2R,5R)-4-amino-2,5-dimethyl-8,8-dioxido-8-thia-3-azabicyclo[3.2.1]oct-3-en-2-yl)-4-fluorophenyl)-5-(methoxymethyl)-2-pyridinecarboxamide] |  |  |  | 7.24 | 7.70 | 2.47 | 

Next, values leading:

pIC50 (BACE1; [2]) | pIC50 [1, 3] | pIC50 (Cathepsin D (Cat D); read-out: CatD IC50) | pIC50 (BACE1; [4]) | pIC50 [1, 5] | pIC50 (Cathepsin D (Cat D); [6]) | pIC50 (Cathepsin D (Cat D); read-out: Cat D IC50 value) | SMILES
8.52 | 8.22 | 3.14 |  |  |  |  | Cc1cc(Cl)cnc1C(=O)Nc1ccc(F)c([C@@]2(C)N=C(N)[C@H]3CCC[C@@H]2S3(=O)=O)c1 [Example 20, N-(3-((1S,2R,5R)-4-Amino-2-methyl-9,9-dioxido-9-thia-3-azabicyclo[3.3.1]non-3-en-2-yl)-4-fluorophenyl)-5-chloro-3-methylpicolinamide]
 |  |  | 7.15 | 7.74 | < 3.40 |  | COc1cnc(C(=O)Nc2ccc(F)c([C@@]3(C)N=C(N)[C@]4(C)CC[C@H]3S4(=O)=O)c2)cn1 [Example 66, N-(3-((1R,2R,5S)-4-amino-2,5-dimethyl-8,8-dioxido-8-thia-3-azabicyclo[3.2.1]oct-3-en-2-yl)-4-fluorophenyl)-5-methoxy-2-pyrazinecarboxamide]
8.40 | 6.95 | 4.64 |  |  |  |  | Cc1cc(Cl)cnc1C(=O)Nc1ccc(F)c([C@@]2(C)N=C(N)[C@]3(C)CCC[C@@]2(F)S3(=O)=O)c1 [Example 8, N-(3-((1R,2R,5S)-4-Amino-1-fluoro-2,5-dimethyl-9,9-dioxido-9-thia-3-azabicyclo[3.3.1]non-3-en-2-yl)-4-fluorophenyl)-5-chloro-3-methylpicolinamide]
7.15 | 8.00 | < 3.40 |  |  |  | < 3.40 | Cc1c(C(=O)Nc2ccc(F)c([C@@]3(C)N=C(N)[C@]4(C)CC[C@H]3S4(=O)=O)c2)nc2ccc(Cl)cn12 [Example 28, N-(3-((1R,2R,5S)-4-Amino-2,5-dimethyl-8,8-dioxido-8-thia-3-azabicyclo[3.2.1]oct-3-en-2-yl)-4-fluorophenyl)-6-chloro-3-methylimidazo[1,2-a]pyridine-2-carboxamide]
7.68 | 8.40 | 3.50 |  |  |  |  | Cc1c(C(=O)Nc2ccc(F)c([C@@]3(C)N=C(N)[C@@]4(C)CC[C@@H]3S4(=O)=O)c2)nc2ccc(Cl)cn12 [Example 25, N-(3-((1S,2R,5R)-4-Amino-2,5-dimethyl-8,8-dioxido-8-thia-3-azabicyclo[3.2.1]oct-3-en-2-yl)-4-fluorophenyl)-6-chloro-3-methylimidazo[1,2-a]pyridine-2-carboxamide]
8.70 | 9.00 | 3.93 |  |  |  |  | Cc1cc(OC(F)F)cnc1C(=O)Nc1ccc(F)c([C@@]2(C)N=C(N)[C@@]3(C)CC[C@@H]2S3(=O)=O)c1 [Example 23, N-(3-((1S,2R,5R)-4-Amino-2,5-dimethyl-8,8-dioxido-8-thia-3-azabicyclo[3.2.1]oct-3-en-2-yl)-4-fluorophenyl)-5-(difluoromethoxy)-3-methylpicolinamide]
8.05 | 7.46 | 5.06 |  |  |  |  | Cc1cc(OC(F)F)cnc1C(=O)Nc1ccc(F)c([C@@]2(C)N=C(N)[C@]3(C)CCC[C@@]2(F)S3(=O)=O)c1 [Example 10, N-(3-((1R,2R,5S)-4-Amino-1-fluoro-2,5-dimethyl-9,9-dioxido-9-thia-3-azabicyclo[3.3.1]non-3-en-2-yl)-4-fluorophenyl)-5-(difluoromethoxy)-3-methylpicolinamide]
8.15 | 6.66 | 4.65 |  |  |  |  | Cc1cc(Cl)cnc1C(=O)Nc1ccc(F)c([C@@]2(C)N=C(N)[C@@]3(C)CCC[C@]2(F)S3(=O)=O)c1 [Example 7, N-(3-((1S,2R,5R)-4-Amino-1-fluoro-2,5-dimethyl-9,9-dioxido-9-thia-3-azabicyclo[3.3.1]non-3-en-2-yl)-4-fluorophenyl)-5-chloro-3-methylpicolinamide]
8.40 | 7.92 | 4.24 |  |  |  |  | Cc1cc(Cl)cnc1C(=O)Nc1ccc(F)c([C@@]2(C)N=C(N)[C@@]3(C)CC[C@]2(C)S3(=O)=O)c1 [Example 31, N-(3-((1S,2R,5R)-4-amino-1,2,5-trimethyl-8,8-dioxido-8-thia-3-azabicyclo[3.2.1]oct-3-en-2-yl)-4-fluorophenyl)-5-chloro-3-methylpicolinamide]
